What follows are molecules tested on C. elegans N2 L1 growth, INVAPP movement imaging, 5 d (assay: C. elegans larval growth inhibition, dose response, whole organism, N2 L1 worms, INVAPP movement imaging (AID 1259352)).
In the case of `CNc1nc(NCCOc2ccccc2)c2sccc2n1`, the EC50 is reported as 82 µM. For `COCCNc1nc(NCCOc2ccccc2Cl)c2sccc2n1`, the EC50 was 87 µM. In the case of `CNc1nc(NCCOc2ccccc2Cl)c2sccc2n1`, the EC50 is reported as 11 µM. `COc1ccccc1CNc1nc(NCCOc2ccccc2Cl)c2sccc2n1` was tested, and the EC50 was 7 µM.

From PubChem BioAssay AID1259352
